system: HCV; assay: not given; conditions: patients, ribavirin alone; cited from earlier work

For NC(=O)c1ncn([C@@H]2O[C@H](CO)[C@@H](O)[C@H]2O)n1 [Ribavirin, ribavirin], the “serum levels of HCV-RNA” value is listed as “does not lower serum levels of HCV-RNA”.

same assay, conditions: ribavirin alone; cited from earlier work

In the case of NC(=O)c1ncn([C@@H]2O[C@H](CO)[C@@H](O)[C@H]2O)n1 [Ribavirin, ribavirin], the “patients in whom serum amino transferase levels are reduced to normal” value is given as 40%.

target: HCV NS3-4A serine protease (full-length NS3-4A protein) (Hepatitis C virus genotype 1a (isolate 1) (HCV), UniProt P26664); assay: HCV NS3-4A protease assay; assay type: biochemical, HCV genotype 1a; conditions: strain HCV-1, fluorogenic peptide substrate, read-out: Protease assay Ex. 12 IC50
Experimental: The inhibitory activity of certain compounds of Table A against HCV NS3-4A serine protease is determined in a homogenous assay using the full-length NS3-4A protein (genotype 1a, strain HCV-1) and a commercially available internally-quenched fluorogenic peptide substrate as described by Taliani, M., et al. 1996 Anal. Biochem. 240:60-67, which is incorporated by reference in its entirety.

Sequence of HCV NS3-4A serine protease (full-length NS3-4A protein) (P26664 1027-1657): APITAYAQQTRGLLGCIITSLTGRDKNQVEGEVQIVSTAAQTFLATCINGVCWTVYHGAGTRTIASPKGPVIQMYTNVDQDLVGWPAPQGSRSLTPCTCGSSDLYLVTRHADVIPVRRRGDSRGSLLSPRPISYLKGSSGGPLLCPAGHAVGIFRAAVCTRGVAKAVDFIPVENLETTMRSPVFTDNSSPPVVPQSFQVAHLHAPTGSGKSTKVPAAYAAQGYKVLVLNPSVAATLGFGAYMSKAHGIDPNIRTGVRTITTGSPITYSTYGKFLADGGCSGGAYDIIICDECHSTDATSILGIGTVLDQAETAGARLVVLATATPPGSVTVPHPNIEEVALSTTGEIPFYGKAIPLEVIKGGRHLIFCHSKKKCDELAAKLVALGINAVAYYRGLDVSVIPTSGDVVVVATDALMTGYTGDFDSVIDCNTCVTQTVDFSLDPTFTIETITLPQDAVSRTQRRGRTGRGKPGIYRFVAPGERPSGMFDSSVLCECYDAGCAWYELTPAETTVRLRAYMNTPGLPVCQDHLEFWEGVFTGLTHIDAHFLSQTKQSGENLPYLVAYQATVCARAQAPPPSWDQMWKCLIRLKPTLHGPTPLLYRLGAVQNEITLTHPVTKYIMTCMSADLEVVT
Sequence of HCV NS3-4A serine protease (full-length NS3-4A protein) (P26664 1658-1711 partner): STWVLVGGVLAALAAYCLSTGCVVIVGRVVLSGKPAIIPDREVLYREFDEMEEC

Point of comparison: C=C[C@@H]1C[C@]1(NC(=O)[C@@H]1C[C@@]2(CN1C(=O)[C@@H](NC(=O)[C@@H](NC(=O)[C@@H]1CCCN1C(C)=O)C1CCCCC1)C(C)(C)C)C(C)(C)C21CCC1)C(=O)NS(=O)(=O)N1CCCC1 [Compound 187, (5R,8S)-7-[(2S)-2-{[({[(2S)-1-acetylpyrrolidin-2-yl]carbonyl}amino)(cyclohexyl)acetyl]amino}-3,3-dimethylbutanoyl]-10,10-dimethyl-N-{(1R,2S)-1-[(pyrrolidin-1-ylsulfonyl)carbamoyl]-2-vinylcyclopropyl}-7-azadispiro[3.0.4.1]decane-8-carboxamide], IC50 25 nM. Against it:
- C=C[C@@H]1C[C@]1(NC(=O)[C@@H]1C[C@@]2(CN1C(=O)[C@@H](NC(=O)[C@@H](NC(=O)[C@@H]1CCCCN1C(C)C)C1CCCCC1)C(C)(C)C)C(C)(C)C21CCC1)C(=O)NS(=O)(=O)N(C)CC1CC1 [Compound 50, (5R,8S)-7-[(2S)-2-{[(2S)-2-cyclohexyl-2-({[(2S)-1-isopropylpiperidin-2-yl]carbonyl}amino)acetyl]amino}-3,3-dimethylbutanoyl]-N-[(1R,2S)-1-({[(cyclopropylmethyl)(methyl)amino]sulfonyl}carbamoyl)-2-vinylcyclopropyl]-10,10-dimethyl-7-azadispiro[3.0.4.1]decane-8-carboxamide] — 6.6-fold lower, 3.8 nM
- C=C[C@@H]1C[C@]1(NC(=O)[C@@H]1C[C@@]2(CN1C(=O)[C@@H](NC(=O)[C@@H](NC(=O)[C@H]1CCCCN1C(C)C)C1CCCCC1)C(C)(C)C)C(C)(C)C21CCC1)C(=O)NS(=O)(=O)N(C)CCC [Compound 114, (5R,8S)-7-[(2S)-2-{[(2S)-2-cyclohexyl-2-({[(2R)-1-isopropylpiperidin-2-yl]carbonyl}amino)acetyl]amino}-3,3-dimethylbutanoyl]-10,10-dimethyl-N-[(1R,2S)-1-({[methyl(propyl)amino]sulfonyl}carbamoyl)-2-vinylcyclopropyl]-7-azadispiro[3.0.4.1]decane-8-carboxamide] — 5.6-fold lower, 4.5 nM
- C=C[C@@H]1C[C@]1(NC(=O)[C@@H]1C[C@@]2(CN1C(=O)[C@@H](NC(=O)[C@@H](NC(=O)[C@@H]1CCCN1C(=O)OCCF)C1CCCCC1)C1CCOCC1)C(C)(C)C21CCC1)C(=O)NS(=O)(=O)N1CCCC1 [Compound 76, 2-fluoroethyl(2S)-2-{[(1S)-1-cyclohexyl-2-{[(1S)-2-[(5R,8S)-10,10-dimethyl-8-({(1R,2S)-1-[(pyrrolidin-1-ylsulfonyl)carbamoyl]-2-vinylcyclopropyl}carbamoyl)-7-azadispiro[3.0.4.1]dec-7-yl]-2-oxo-1-(tetrahydro-2H-pyran-4-yl)ethyl]amino}-2-oxoethyl]carbamoyl}pyrrolidine-1-carboxylate] — 3.2-fold higher, 80 nM
- C=C[C@@H]1C[C@]1(NC(=O)[C@@H]1C[C@@]2(CN1C(=O)[C@@H](NC(=O)[C@@H](NC(=O)[C@@H]1CCCCN1C(C)C)C1CCCCC1)C(C)(C)C)C(C)(C)C21CCC1)C(=O)NS(=O)(=O)N1CCCCC1 [Compound 113, (5R,8S)-7-[(2S)-2-{[(2S)-2-cyclohexyl-2-({[(2S)-1-isopropylpiperidin-2-yl]carbonyl}amino)acetyl]amino}-3,3-dimethylbutanoyl]-10,10-dimethyl-N-{(1R,2S)-1-[(piperidin-1-ylsulfonyl)carbamoyl]-2-vinylcyclopropyl}-7-azadispiro[3.0.4.1]decane-8-carboxamide] — 7.1-fold lower, 3.5 nM
- C=C[C@@H]1C[C@]1(NC(=O)[C@@H]1C[C@@]2(CN1C(=O)[C@@H](NC(=O)[C@@H](NC(=O)OC(C)(C)C)C(C)(C)C)C(C)(C)C)C(C)(C)C21CCC1)C(=O)NS(=O)(=O)N1CCCC1 [Compound 2, tert-butyl [(1S)-1-{[(1S)-1-{[(5R,8S)-10,10-dimethyl-8-({(1R,2S)-1-[(pyrrolidin-1-ylsulfonyl)carbamoyl]-2-vinylcyclopropyl}carbamoyl)-7-azadispiro[3.0.4.1]dec-7-yl]carbonyl}-2,2-dimethylpropyl]carbamoyl}-2,2-dimethylpropyl]carbamate] — 30-fold higher, 750 nM
- C=C[C@@H]1C[C@]1(NC(=O)[C@@H]1C[C@@]2(CN1C(=O)[C@@H](NC(=O)[C@@H](NC(=O)[C@@H]1CCCCN1C(C)C)C1CCCCC1)C(C)(C)C)C(C)(C)C21CCC1)C(=O)NS(=O)(=O)N(CC)CC(F)F [Compound 155, (5R,8S)-7-[(2S)-2-{[(2S)-2-cyclohexyl-2-({[(2S)-1-isopropylpiperidin-2-yl]carbonyl}amino)acetyl]amino}-3,3-dimethylbutanoyl]-N-[(1R,2S)-1-({[(2,2-difluoroethyl)(ethyl)amino]sulfonyl}carbamoyl)-2-vinylcyclopropyl]-10,10-dimethyl-7-azadispiro[3.0.4.1]decane-8-carboxamide] — 5.7-fold lower, 4.4 nM
- C=C[C@@H]1C[C@]1(NC(=O)[C@@H]1C[C@@]2(CN1C(=O)[C@@H](NC(=O)[C@@H](NC(=O)[C@@H]1CCCCN1C(C)C)C1CCCCC1)C(C)(C)C)C(C)(C)C21CCC1)C(=O)NS(=O)(=O)N(C)CCC [Compound 112, (5R,8S)-7-[(2S)-2-{[(2S)-2-cyclohexyl-2-({[(2S)-1-isopropylpiperidin-2-yl]carbonyl}amino)acetyl]amino}-3,3-dimethylbutanoyl]-10,10-dimethyl-N-[(1R,2S)-1-({[methyl(propyl)amino]sulfonyl}carbamoyl)-2-vinylcyclopropyl]-7-azadispiro[3.0.4.1]decane-8-carboxamide] — 18-fold lower, 1.4 nM
- C=C[C@@H]1C[C@]1(NC(=O)[C@@H]1C[C@@]2(CN1C(=O)[C@@H](NC(=O)[C@@H](NC(=O)[C@@H]1CCCCN1C(C)C)C(C)(C)C)C(C)C)C(C)(C)C21CCC1)C(=O)NS(=O)(=O)N(CC)CC [Compound 131, (5R,8S)-N-[(1R,2S)-1-{[(diethylamino)sulfonyl]carbamoyl}-2-vinylcyclopropyl]-7-[(2S)-2-{[(2S)-2-({[(2S)-1-isopropylpiperidin-2-yl]carbonyl}amino)-3,3-dimethylbutanoyl]amino}-3-methylbutanoyl]-10,10-dimethyl-7-azadispiro[3.0.4.1]decane-8-carboxamide] — 4.5-fold lower, 5.5 nM
- C=C[C@@H]1C[C@]1(NC(=O)[C@@H]1C[C@@]2(CN1C(=O)[C@@H](NC(=O)[C@@H](NC(=O)[C@@H]1CCCCN1CC)c1ccccc1)C(C)(C)C)C(C)(C)C21CCC1)C(=O)NS(=O)(=O)N1CCCC1 [Compound 103, (5R,8S)-7-[(2S)-2-{[(2S)-2-({[(2S)-1-ethylpiperidin-2-yl]carbonyl}amino)-2-phenylacetyl]amino}-3,3-dimethylbutanoyl]-10,10-dimethyl-N-{(1R,2S)-1-[(pyrrolidin-1-ylsulfonyl)carbamoyl]-2-vinylcyclopropyl}-7-azadispiro[3.0.4.1]decane-8-carboxamide] — within 1.5-fold, 20 nM
